# Measurements taken from patent US9073940B2, “Tricyclic pyrazol amine derivatives” (MERCK SERONO SA, priority 2009, dated 2015).
# System: 4 PI3K isoforms (Human recombinant GST-PI3K)
# Test: PI3K scintillation proximity assay, best IC50 obtained with the four isoforms (alpha, beta, delta, gamma)
# Assay type: biochemical
# Conditions: best IC50 obtained with the four isoforms of PI3K; read-out: Best potency measured on the 4 PI3K isoforms
row,Compound,IC50 [µM]
1,"O=C(c1nn(-c2cccc(-c3nccs3)c2)c2c1CS(=O)(=O)c1ccccc1-2)N1CCOCC1 [Example 189, 3-(Morpholin-4-ylcarbonyl)-1-[3-(1,3-thiazol-2-yl)phenyl]-1,4-dihydrothiochromeno[4,3-c]pyrazole 5,5-dioxide]",4.22
2,"COCCN1CCC(Cn2nc(C(=O)N3CCOCC3)c3c2-c2ccccc2S(=O)(=O)C3)CC1 [Example 190, 1-{[1-(2-Methoxyethyl)piperidin-4-yl]methyl}-3-(morpholin-4-ylcarbonyl)-1,4-dihydrothiochromeno[4,3-c]pyrazole 5,5-dioxide]",0.681
3,"CC(=O)N1CCC(Cn2nc(C(=O)N3CCOCC3)c3c2-c2ccccc2S(=O)(=O)C3)CC1 [Example 191, 1-[(1-Acetylpiperidin-4-yl)methyl]-3-(morpholin-4-ylcarbonyl)-1,4-dihydrothiochromeno[4,3-c]pyrazole 5,5-dioxide]",2.83
4,"O=C(c1nn(-c2ccccc2)c2c1CS(=O)(=O)c1sccc1-2)N1CCOCC1 [Example 192, 3-(Morpholin-4-ylcarbonyl)-1-phenyl-1,4-dihydrothieno[3′,2′:5,6]thiopyrano[4,3-c]pyrazole 5,5-dioxide]",1.7
5,"O=C(c1nn(C2CCCC(C(=O)N3CCCCC3)C2)c2c1CS(=O)(=O)c1ccccc1-2)N1CCOCC1 (stereo not shown) [Example 193, 3-(Morpholin-4-ylcarbonyl)-1-[3-(piperidin-1-ylcarbonyl)cyclohexyl]-1,4-dihydrothiochromeno[4,3-c]pyrazole 5,5-dioxide]",0.362
6,"Cn1cc(-n2nc(C(=O)N3CCOCC3)c3c2-c2ccsc2S(=O)(=O)C3)ccc1=O [Example 195, 1-Methyl-5-[3-(morpholin-4-ylcarbonyl)-5,5-dioxidothieno[3′,2′:5,6]thiopyrano[4,3-c]pyrazole-1 (4H)-yl]pyridin-2 (1H)-one]",2.69
7,"Cc1noc(-c2cccc(-n3nc(C(=O)N4CCOCC4)c4c3-c3ccccc3S(=O)(=O)C4)c2)n1 [Example 196, 1-[3-(3-Methyl-1,2,4-oxadiazol-5-yl)phenyl]-3-(morpholin-4-ylcarbonyl)-1,4-dihydrothiochromeno[4,3-c]pyrazole 5,5-dioxide]",2.69
8,"O=C(c1nn(-c2cccc(-c3ccoc3)c2)c2c1CS(=O)(=O)c1ccccc1-2)N1CCOCC1 [Example 197, 1-[3-(3-Furyl)phenyl]-3-(morpholin-4-ylcarbonyl)-1,4-dihydrothiochromeno[4,3-c]pyrazole 5,5-dioxide]",0.826
9,"O=C(c1nn(-c2cccc(-c3cccnc3)c2)c2c1CS(=O)(=O)c1ccccc1-2)N1CCOCC1 [Example 198, 3-(Morpholin-4-ylcarbonyl)-1-(3-pyridin-3-ylphenyl)-1,4-dihydrothiochromeno[4,3-c]pyrazole 5,5-dioxide]",0.28
10,"CCc1nc(-c2cccc(-n3nc(C(=O)N4CCOCC4)c4c3-c3ccccc3S(=O)(=O)C4)c2)no1 [Example 199, 1-[3-(5-Ethyl-1,2,4-oxadiazol-3-yl)phenyl]-3-(morpholin-4-ylcarbonyl)-1,4-dihydrothiochromeno[4,3-c]pyrazole 5,5-dioxide]",2.59
11,"Cc1nc(-c2cccc(-n3nc(C(=O)N4CCOCC4)c4c3-c3ccccc3S(=O)(=O)C4)c2)n[nH]1 [Example 200, 1-[3-(5-Methyl-1H-1,2,4-triazol-3-yl)phenyl]-3-(morpholin-4-ylcarbonyl)-1,4-dihydrothiochromeno[4,3-c]pyrazole 5,5-dioxide]",4.86
12,"O=C(c1nn(C2CCCCC2)c2c1CS(=O)(=O)c1sccc1-2)N1CCOCC1 [Example 201, 1-Cyclohexyl-3-(morpholin-4-ylcarbonyl)-1,4-dihydrothieno[3′,2′:5,6]thiopyrano[4,3-c]pyrazole 5,5-dioxide]",0.302
13,"Cc1cccc2c1S(=O)(=O)Cc1c(C(=O)N3CCOCC3)nn(-c3ccccc3)c1-2 [Example 202, 6-Methyl-3-(morpholin-4-ylcarbonyl)-1-phenyl-1,4-dihydrothiochromeno[4,3-c]pyrazole 5,5-dioxide]",1.74
